What was measured:
[1] = system: allodynia induced by sulprostone; assay: Mouse sulprostone model of allodynia; type: in vivo; details: up to 1 mg/kg, 15 min before sulprostone 300 ng/kg IP, FIG. 3
Protocol: In this alternative model of chronic pain, allodynia can be induced in mice through intraperitoneal treatment of the animals with 300 ng/kg sulprostone (prostaglandin E2 receptor agonist) in 50% DMSO and in a volume of 5 μl. In this model, the pain response to stroking the flank with a paint brush is scored 8 times over a 35 minute period starting 15 minutes following spinal administration of sulprostone. Minami et al., 57 Pain 217-223 (1994), hereby incorporated by reference herein. Sulprostone treatment alone elicits a score of 12-13 on a 16-point scale.
In either model, the compounds are formulated in d-H2O and given in a volume of 1 ml/kg body weight for intraperitoneal (IP) dosing.
Six mice per group are rendered allodynic by injection of one of the following agents: 300 ng/kg sulprostone in DMSO IP, 100 ng/kg phenylephrine (PE) in dH2O IP, or 100 ng NMDA in DMSO intrathecally (IT). Fifteen minutes before administration of the allodynia-inducing agents, the experimental mice are given 1 mg/kg NB-DNJ. Thirty (30) minutes following administration of NB-DNJ, the allodynic response is monitored as described by brushing the flank of each mouse with a paint brush.
Five to six mice per group are rendered allodynic by injection of 300 ng/kg sulprostone IP. Fifteen minutes before inducement of an allodynic response, experimental mice are given one of the following: 1 mg/kg, 300 μg/kg, and 100 μg/kg NB-DNJ; 1 mg/kg N-butyldeoxymannojirimycin; 1 mg/kg N-5-carboxy-1-deoxynojirimycin; 1 mg/kg N-dodecyldeoxynojirimycin; 1 mg/kg N-ethyl-1-deoxynojirimycin; 1 mg/kg, 300 μg/kg, and 30 μg/kg D-glucaro-delta-lactam; 1 mg/kg 4-O-a-D-glucopyranosylmoranoline; 1 mg/kg nojirimycin bisulfite; 1 mg/kg nojirimycin-1-sulfonic acid; 1 mg/kg N-(n-nonyl)deoxynojirimycin; 1 mg/kg N(7-oxadecyl)deoxynojirimycin; and 1 mg/kg N-(7-oxa-9,9,9-trifluorononyl)deoxynojirimycin. The DMSO vehicle and sulprostone alone are used as controls.
Starting thirty (30) minutes following administration of NB-DNJ, the allodynic response of each mouse was monitored by brushing the flank of the mouse with a paint brush.
Five to six mice per group are rendered allodynic by injection of one of the following: 300 ng/kg sulprostone IP, 100 ng/kg phenylephrine (PE) IP, or 100 ng NMDA intrathecally (IT). Fifteen minutes prior to the induction of allodynia, the mice are given D-glucaro-delta-lactam IP at […], or 1 mg/kg. PE or NMDA-treated mice are given 1 mg/kg D-glucaro-delta-lactam IP.

[2] = system: chronic pain; assay: Mouse and rat models of chronic pain (summary statement); type: in vivo
[3] = system: allodynia induced by N-methyl-D-aspartate (NMDA); assay: Mouse NMDA model of allodynia; type: in vivo; details: 3 mg/kg, 15 min before 200 ng NMDA IT, FIG. 2
Protocol: In variants of this model, allodynia can be induced using 100 ng N-methyl-D-aspartate (NMDA) in DMSO intrathecally, or IP phenylephrine (PE) 100 ng/kg formulated in dH2O. In either model, the compounds are formulated in d-H2O and given in a volume of 1 ml/kg body weight for intraperitoneal (IP) dosing. Six mice per group are rendered allodynic by injection of one of the following agents: 300 ng/kg sulprostone in DMSO IP, 100 ng/kg phenylephrine (PE) in dH2O IP, or 100 ng NMDA in DMSO intrathecally (IT). Fifteen minutes before administration of the allodynia-inducing agents, the experimental mice are given 1 mg/kg NB-DNJ. Thirty (30) minutes following administration of NB-DNJ, the allodynic response is monitored as described by brushing the flank of each mouse with a paint brush. Six mice per group are given one of the following: given 100 μg/kg NB-DNJ, 300 μg/kg NB-DNJ, 1 mg/kg NB-DNJ, or 3 mg/kg 1-deoxynojirimycin. After 15 minutes the mice are rendered allodynic by injection of 200 ng NMDA in DMSO IT. Starting thirty (30) minutes following administration of NB-DNJ, the allodynic response of each mouse is monitored by brushing the flank of the mouse with a paint brush. Five to six mice per group are rendered allodynic by injection of one of the following: 300 ng/kg sulprostone IP, 100 ng/kg phenylephrine (PE) IP, or 100 ng NMDA intrathecally (IT). Fifteen minutes prior to the induction of allodynia, the mice are given D-glucaro-delta-lactam IP at […], or 1 mg/kg. PE or NMDA-treated mice are given 1 mg/kg D-glucaro-delta-lactam IP.

[4] = system: primary rat brain cortical neurons treated with kainate; assay: Kainate-induced excitotoxicity in primary cortical neurons (LDH release); type: cell-based; details: cortical cell cultures; FIGS. 9A, 9B and 9C
Protocol: (§1) Primary rat brain cortical neurons were cultured as follows. In brief, rat cerebral cortices were removed from brains of the 16 day-old-fetal rats. The neocortices were gently triturated and plated on 24 well plates (300,000 viable cells/cm2) in plating Modified Eagle's Medium (MEM) supplemented with 10% horse serum, 10% fetal calf serum and 2 mM L-glutamine. Cultures were maintained at 37 C in a humidified 5% CO2 atmosphere.
(§2) After 4 days' growth (DIV 4), half of the medium was replaced by a medium identical to the plating medium but lacking calf serum. At DIV4, 10 μM 5-fluoro-2-deoxyuridine was included to each well to halt overgrowth of glia. Mixed cultures of neurons and glia were then fed at DIV7 and DIV11 with MEM plus 5% horse serum previously conditioned by growth with cortical astrocytes for 24 h.
Excitotoxicity was induced in these cells by addition of 50 μM kainate or 20 μM N-methyl-D-aspartate plus 10 μM D-serine to each well.
(§3) Under the experimental conditions used, i.e. after 6 hours addition of excitotoxic agent, 40% toxicity is generally observed and measured by determination of the amount of lactate dehydrogenase (LDH) released into the medium following membrane degradation. Such assay methods are well-known; a kit for conducting a homogeneous form of the LDH assay format is sold by Promega under the name CytoTox ONE® Homogenous Membrane Integrity Assay. Overall cell injury was assessed microscopically under phase-contrast optics or by measuring amount of LDH released into the bathing medium 24 hr after neurotoxic insults (see, e.g., Koh and Choi, J. NEUROSCI. METHODS 20: 83-90, 1987), hereby incorporated by reference herein.
[…] The final results are normalized optical density (OD) values (treated cells/untreated control cells), where a value of 1 represents 100% neuronal survival and a value of 0.6 represents 60% survival.

[5] = system: primary rat brain cortical neurons treated with NMDA plus D-serine; assay: NMDA/serine-induced excitotoxicity in primary cortical neurons (LDH release); type: cell-based; details: NMDA/serine-treated cells, 3 h or 16 h preincubation; FIGS. 10A and 10B
Protocol: as §1
as §2, with “h. […]” for “h.”
as §3, with “Such assay methods are well-known; a kit for conducting a homogeneous form of the LDH assay format is sold by Promega under the name CytoTox ONE® Homogenous Membrane Integrity Assay.” left out, “herein. […]” for “herein.”

For `CCN1C[C@H](O)[C@@H](O)[C@H](O)[C@H]1CO` [N-ethyldeoxynojirimycin, N-ethyl-1-deoxynojirimycin], the “attenuation of the allodynic response (analgesic activity)” value [1] was “attenuate the allodynic response”.

For `CCCCN1C[C@H](O)[C@@H](O)[C@@H](O)[C@H]1CO` [NB-DGJ, N-butyldeoxygalactonojirimycin], the “activity in models of chronic pain” value [2] was “not to be active”.

`OC[C@H]1NC[C@H](O)[C@@H](O)[C@@H]1O` [DNJ, 1-deoxynojirimycin] was tested, and the analgesic activity [3] was “not analgesic”, the “protection against kainate induced toxicity” value [4] was “about 50%” and the neuroprotective effect [5] was “no neuroprotective effect”.

From patent US7884115B2, “Methods and compositions for the treatment of pain and other neurological conditions” (Allergan, Inc., priority 2004, dated 2011)
